One test deals with T1, KRAS_G12D and cRAF (Homo sapiens, UniProt P01116, G12D).
T1 construct: purchased
The test can be described thus: Inhibition of KRAS_G12D/cRAF binding (Cisbio binding kit, 665/615 ratio), Effect Embodiment B. Particulars: read-out: GTP-KRAS-G12D:CRAF IC50. The essentials:
(§1)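 Compounds are tested over eleven threefold dilution steps in duplicate, with final DMSO at 1%.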

The next test deals with T2, KRAS-G12D and SOS1 (Homo sapiens, UniProt P01116, G12D).
T2 construct: purchased
T2 sequence (P01116 1-188 isoform P01116-2 G12D): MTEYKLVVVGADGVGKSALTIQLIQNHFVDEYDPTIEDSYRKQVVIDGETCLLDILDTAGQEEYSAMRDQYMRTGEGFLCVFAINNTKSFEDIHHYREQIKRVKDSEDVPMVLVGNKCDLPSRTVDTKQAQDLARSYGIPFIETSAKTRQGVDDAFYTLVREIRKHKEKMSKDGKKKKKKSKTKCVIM
Put plainly: Inhibition of KRAS-G12D/SOS1 binding (Cisbio binding kit, 665/615 ratio), Effect Embodiment A. Particulars: read-out: GTP-KRAS-G12D:SOS1 IC50. The essentials:
as §1

Another test deals with T3, KRAS_WT and SOS1 (Homo sapiens, UniProt P01116).
T3 construct: purchased
T3 sequence (P01116 1-188 isoform P01116-2): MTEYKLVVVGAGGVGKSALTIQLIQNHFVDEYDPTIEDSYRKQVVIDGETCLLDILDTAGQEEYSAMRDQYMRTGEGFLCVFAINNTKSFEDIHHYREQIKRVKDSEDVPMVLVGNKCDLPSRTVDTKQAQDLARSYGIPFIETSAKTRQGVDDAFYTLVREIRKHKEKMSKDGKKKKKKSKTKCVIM
The test can be described thus: Inhibition of KRAS_WT/SOS1 binding (Cisbio binding kit, 665/615 ratio), Effect Embodiment C. Particulars: read-out: GTP-KRAS-WT:SOS1 IC50. A digest of the protocol: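 Compounds tested as 3-fold, 11-point dilutions in duplicate at 1% DMSO final against the KRAS_WT/SOS1 binding system. IC50 derived by nonlinear regression fit.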

Structures can show the parent of a compound that is named as a salt. A value given as a limit tells only on which side of the number the result lay.

T1 sequence (P01116 1-188 isoform P01116-2 G12D): as the sequence (P01116 1-188 isoform P01116-2 G12D) above

The IC50 is the midpoint of a concentration-inhibition curve. For the compound `CN(C)[C@H]1C[C@@H](Oc2nc(N3CC4CCC(C3)N4)c3cc(Cl)c(-c4cc(O)cc5ccccc45)c(F)c3n2)C1` (single isomer, unassigned) [Compound 69a, 4-((S or R)-4-((1R,5S)-3,8-diazabicyclo[3.2.1]octan-3-yl)-6-chloro-2-((1S,3R)-3-(dimethylamino)cyclobutoxy)-8-fluoroquinazolin-7-yl)naphthalen-2-ol dihydrochloride], the IC50 on KRAS_G12D and cRAF is 1850 nM; at KRAS-G12D and SOS1 it was 225 nM; at KRAS_WT and SOS1 it was > 100000 nM.

For `CN1C[C@@H]2C[C@@H]2[C@H]1COc1nc(N2CC3CCC(C2)N3)c2cnc(-c3cc(O)cc4ccccc34)c(F)c2n1` [Compound 140, 4-(4-((1R,5S)-3,8-diazabicyclo[3.2.1]octan-3-yl)-8-fluoro-2-((1S,2S,5R)-3-methyl-3-azabicyclo[3.1.0]hexan-2-yl)methoxy)pyridin[4,3-d]pyrimidin-7-yl)naphthalen-2-ol dihydrochloride], the IC50 on KRAS_G12D and cRAF amounted to 95.7 nM; at KRAS-G12D and SOS1, 32.8 nM; at KRAS_WT and SOS1, 1360 nM.

In the case of `Cc1cc2c(N3CC4CCC(C3)N4)nc(OCCCN(C)C)nc2c(F)c1-c1cc(O)cc2ccccc12` (single isomer, unassigned) [Compound 149a, 4-((R or S)-4-((1R,5S)-3,8-diazabicyclo[3.2.1]octan-3-yl)-2-(3-(dimethylamino)propoxy)-8-fluoro-6-methylquinazolin-7-yl)naphthalen-2-ol hydrochloride], the IC50 turned out to be 96.9 nM on KRAS_G12D and cRAF; 39.6 nM at KRAS-G12D and SOS1; 854 nM at KRAS_WT and SOS1.

Consider `C#Cc1c(F)ccc2cccc(-c3c(F)cc4c(N5CC6CCC(C5)N6)nc(OC[C@@]56CCCN5C[C@H](F)C6)nc4c3F)c12` (single isomer, unassigned) [Compound 279a, (S or R)-4-((1R,5S)-3,8-diazacyclo[3.2.1]octyl-3-yl)-7-(8-ethynyl-7-fluoronaphthalen-1-yl)-6,8-difluoro-2-((2R,7aS)-2-fluorotetrahydro-1H-pyrrolidin-7a(5H)-yl)methoxy)quinazoline formate], for which the IC50 was found to be 10.9 nM at KRAS_G12D and cRAF; 8.77 nM at KRAS-G12D and SOS1; 27.3 nM on KRAS_WT and SOS1.

For `CC1OCCN(CCCOc2nc(N3CC4CCC(C3)N4)c3cc(Cl)c(-c4cc(O)cc5ccccc45)c(F)c3n2)C1C` (single isomer, unassigned) [Compound 265b, 4-((R or S)-4-((1R,5S)-3,8-diazabicyclo[3.2.1]octan-3-yl)-6-chloro-2-(3-((2S or 2R, 3R or 3S)-2,3-dimethylmorpholinyl)propoxy)-8-fluoroquinazolin-7-yl)naphthalen-2-ol diformate], the IC50 on KRAS_G12D and cRAF is 199 nM; at KRAS-G12D and SOS1 it was 59.6 nM; at KRAS_WT and SOS1, 7850 nM.

As to `CN(C)C1CN(c2nc(N3C[C@H]4CC[C@@H](C3)N4)c3cc(Cl)c(-c4cc(O)cc5ccccc45)c(F)c3n2)C1` (single isomer, unassigned) [Compound 5a, (R or S)-4-(4-((1R,5S)-3,8-diazabicyclo [3.2.1]octan-3-yl)-6-chloro-2-(3-(dimethylamino)azetidin-1-yl)-8-fluoro-quinazolin-7-yl)naphthalen-2-ol], the IC50 at KRAS_G12D and cRAF stood at 251 nM; at KRAS-G12D and SOS1 it was 41.4 nM; at KRAS_WT and SOS1, 1810 nM.

Take `C[C@@H]1CCCCN1CCOc1nc(N2CC3CCC(C2)N3)c2cc(Cl)c(-c3cc(O)cc4ccccc34)c(F)c2n1` (single isomer, unassigned) [Compound 269, (S or R)-4-(4-((1R,5S)-3,8-diazacyclo[3.2.1]octan-3-yl)-6-chloro-8-fluoro-2-(2-((R)-2-methylpiperidin-1-yl)ethoxy)quinazolin-7-yl)naphthalen-2-ol formate]: the IC50 is 339 nM on KRAS_G12D and cRAF; 67.9 nM at KRAS-G12D and SOS1; 1760 nM at KRAS_WT and SOS1.

The values above are taken from US20230365563A1, “QUINAZOLINE COMPOUND AND APPLICATION THEREOF” (SHANGHAI PHARMACEUTICALS HOLDING CO., LTD., priority 2020, published 2023).
